Converted amounts (≈) assume the structure as drawn. Like-named read-outs stand apart in the source and are kept apart here.
Key:
[1] = Solubility in water, buffer pH 4.5 and ethanol (UPLC); format: physicochemical; conditions: for solubility at 1 h: thermodynamic from solid
Protocol: An excess amount of CUR-2GE (2 mg) was added to 2 mL of three solvents, water, phosphate buffer pH 4.5 and ethanol. The samples were sonicated at 25°C for 1 h and then placed on an orbital shaker at 100 rpm at 25°C for 1 h. The obtained mixture was then centrifuged at 25°C at 14,000 rpm for 10 min [37, 38]. The supernatant was analyzed using UPLC and the solubility of CUR-2GE in each medium was determined. Experiments were performed in triplicate. The solubility category was classified according to USP [39]. The percentage of CUR-2GE in the undissociated form at various pH values was calculated based on the Henderson-Hasselbalch equation [40] (see S1 Appendix).
S1 Appendix. Experimental procedures
The solubility category was classified according to USP [1] as very soluble (>1000 mg/mL), freely soluble (100-1000 mg/mL), soluble (33-100 mg/mL), sparingly soluble (10-33 mg/mL), slightly soluble (1-10 mg/mL), very slightly soluble (0.1-1 mg/mL) and practically […]
The percentage of CUR-2GE in the undissociated form at various pH values were calculated based on Henderson-Hasselbalch using Eq. 1:
%Undissociated form = 100 - antilog (pH-pKa) x 100 (1)
Where pH; pH value of the medium for solubilization, pKa; negative logarithm of the dissociation constant (Ka) of CUR-2GE with computed using the Marvin (Product version: 21.8.0) of ChemAxon (Budapest, Hungary) (http://www.chemaxon.com) accessed on June 2021. […]

[2] = Chemical stability in aqueous buffer solutions at 37°C; format: physicochemical; conditions: for half-life at 10 μg/mL: read-out: t1/2, hydrolysis (converted)
Protocol: Chemical stability of CUR-2GE was performed at 37°C in aqueous buffer solutions at pH 1.2, 4.5, 6.8 and 7.4. CUR-2GE (1 mg) was dissolved in DMSO (1 mL) and adjusted with the diluent in a 5-mL volumetric flask to obtain a stock solution at 200 μg/mL. The stock solution was diluted with a pre-incubated buffer in a vial at 37°C at an initial concentration of 10 μg/mL [26]. Each sample was incubated at 37°C at appropriate intervals and analyzed using UPLC. The experiment was performed in triplicate. The hydrolytic products were also identified by comparing chromatographic retention times to curcumin and CUR-1GE. Kinetic profiles of CUR-2GE and its hydrolytic products, including curcumin and CUR-1GE, were determined by plotting percent peak area vs. incubation time. The linear slope of the natural logarithm of concentrations against time was used to calculate the degradation rate (k) and half-life (t1/2) using the linear pseudo-first-order model (see S1 Appendix). […]
The linear slopes of the natural logarithm of a concentration against time were used to calculate the degradation rate (k) for the pseudo-first-order (Eq. 5).
Ln [At] = Ln [A0] - kt (5)
Where A0 is the CUR-2GE concentration at time 0, At is the concentration of CUR-2GE at time t, and k is the degradation rate constant of CUR-2GE.
The half-lives (t1/2) of CUR-2GE were calculated by Eq. 6: […]

BV-2 microglial cells = assay: Cytotoxicity (MTT assay); format: cell-based, murine; conditions: BV-2 cells, 24 h
Protocol: BV-2 microglial cells were cultured in DMEM supplemented with 10% fetal bovine serum, 2 mM L-glutamine, 1% penicillin/streptomycin (100 units/mL penicillin and 100 μg/mL streptomycin) at 37°C in 5% CO2. BV-2 microglial cells were plated in a 24-well plate at a density of 2 × 10^5 cells/well for 24 h. Various concentrations at 0, 1.25, 2.5, 5, 10, or 20 μM of curcumin or CUR-2GE were determined for a non-toxic concentration. After 24 h, cell viability was assessed by an MTT assay. The media was removed and replaced with an MTT solution in PBS (0.5 mg/mL). After 3-h incubation, the MTT solution was discarded, and formazan crystals formed after the reaction was dissolved in DMSO. The absorbance was then read at 540 nm using a microplate reader (CLARIOstar®, BMG Labtech, Ortenberg, Germany). The percentage of cell viability was expressed relative to the control cells. In addition, the cell viability of BV-2 microglial cells treated with LPS and a combination of LPS and the test compounds was also determined.

[3] = test system: IL-6 release in LPS-stimulated BV-2 microglial cells; assay: IL-6 ELISA; format: cell-based, murine; conditions: 10 μM, 12 h pre-incubation, then 1 μg/mL LPS 24 h; compared with curcumin
Protocol: BV-2 microglial cells were plated in a 24-well plate at a density of 2 × 10^5 per well for 24 h. The cells were pre-incubated for 12 h with curcumin (10 μM), CUR-2GE (10 μM), medium (DMEM), or a vehicle (0.5% DMSO). The cells were then induced with 1 μg/mL LPS for 24 h. The culture medium samples were collected and analyzed for nitric oxide (NO) and cytokines (TNF- and IL-6) using NO and enzyme-linked immunoassay (ELISA) assays, respectively.
Quantification of TNF-α and IL-6 was performed using commercially available ELISA kits according to the manufacturer’s protocol (BioLegend, San Diego, CA, USA). The absorbance was measured at 450 nm using the microplate reader, and the amount of TNF-α and IL-6 was determined against their corresponding standard curves of TNF-α and IL-6.

[4] = 25°C, <LOQ refers to less than 0.05 μg/mL

CCOC(=O)CCCNC(=O)Oc1ccc(/C=C/C(=O)/C=C(O)/C=C/c2ccc(OC(=O)NCCCC(=O)OCC)c(OC)c2)cc1OC [CUR-2GE, Curcumin diethyl γ-aminobutyrate]
Solubility, buffer pH 4.5 [1, 4]: <LOQ | Solubility, water [1, 4]: <LOQ | solubility at 1 h ([1]; ethanol, organic solvent or mixture, 25°C, read-out: Solubility, ethanol): 17.9 ± 1.76 µg/mL (≈ 26.1 µM) | USP solubility classification ([1]; in water, buffer pH 4.5 and ethanol, practically insoluble = <0.1 mg/mL): practically insoluble | solubility at 1 h ([1]; phosphate buffer pH 4.5, pH 4.5, aqueous buffer, 25°C, <LOQ refers to less than 0.05 μg/mL, read-out: Solubility, buffer pH 4.5): < 0.05 µg/mL | solubility at 1 h ([1]; water, 25°C, <LOQ refers to less than 0.05 μg/mL, read-out: Solubility, water): < 0.05 µg/mL | hydrolysis rate in buffer pH 7.4 higher than pH 1.2 ([2]; 37°C): 262 folds | hydrolysis rate in buffer pH 7.4 higher than pH 4.5 ([2]; 37°C): 778 folds | hydrolysis rate in buffer pH 7.4 higher than pH 6.8 ([2]; 37°C): 1.94 folds | half-life at 10 μg/mL ([2]; aqueous buffer pH 1.2, buffer pH 1.2, 37°C): 11.9 ± 0.14 h | half-life at 10 μg/mL ([2]; aqueous buffer pH 4.5, buffer pH 4.5, 37°C): 36.4 ± 8.53 h | half-life at 10 μg/mL ([2]; aqueous buffer pH 6.8, buffer pH 6.8, 37°C): 0.09 ± 0.01 h | half-life at 10 μg/mL ([2]; aqueous buffer pH 7.4, buffer pH 7.4, 37°C): 0.045 ± 0.002 h | k, pseudo-first-order hydrolysis ([2]; buffer pH 1.2, 37°C): 0.0583 ± 0.0007 h⁻¹ | k, pseudo-first-order hydrolysis ([2]; buffer pH 4.5, 37°C): 0.020 ± 0.004 h⁻¹ | k, pseudo-first-order hydrolysis ([2]; buffer pH 6.8, 37°C): 7.89 ± 0.54 h⁻¹ | k, pseudo-first-order hydrolysis ([2]; buffer pH 7.4, 37°C): 15.31 ± 0.70 h⁻¹ | non-toxic concentrations (no cytotoxicity) (BV-2 microglial cells): ≤ 10 µM | inhibition of IL-6 release [3]: to a greater extent than curcumin

Source: publication PMC9048745, “Physicochemical investigation of a novel curcumin diethyl γ-aminobutyrate, a carbamate ester prodrug of curcumin with enhanced anti-neuroinflammatory activity” (PLoS ONE, 2022)
